# Measurements: paper PMC5572114, “Guanidine N-methylation by BlsL Is Dependent on Acylation of Beta-amine Arginine in the Biosynthesis of Blasticidin S” (Frontiers in Microbiology, 2017)
# Molecular target: T1, BlsL (Streptomyces griseochromogenes, UniProt Q841K2)
# T1 construct: gene J2Z21_009042; full length, His-tagged, pET28a NdeI/EcoRI, E. coli BL21(DE3); gene from cluster plasmid pJTU1780; primers encode N-terminus MEQSTGA, C-terminus CFYKD
# Assay: SAM released from boiled purified BlsL; HPLC and MS/MS
# Type: binding
# Details: co-purified endogenous ligand; methyl donor
# T1 sequence (Q841K2 1-213): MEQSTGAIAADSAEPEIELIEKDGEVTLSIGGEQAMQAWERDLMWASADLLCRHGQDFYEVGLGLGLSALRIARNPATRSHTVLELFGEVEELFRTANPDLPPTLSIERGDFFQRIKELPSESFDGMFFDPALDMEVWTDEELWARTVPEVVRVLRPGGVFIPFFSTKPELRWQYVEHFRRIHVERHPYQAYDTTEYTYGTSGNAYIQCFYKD
compound,measurement,value
C[S+](CC[C@H](N)C(=O)O)C[C@H]1O[C@@H](n2cnc3c(N)ncnc32)[C@H](O)[C@@H]1O (stereo partly shown) [SAM],SAM released from boiled purified BlsL; HPLC and MS/MS,Association of SAM with BlsL was confirmed by HPLC as well as MS/MS fragmentation
